Measured values: patent US7247617B2, “Sixteen-member macrolide antiinfective agents” (Kosan Biosciences Incorporated, priority 2004, dated 2007)

Assays:
[1] = test system: S. pneumoniae; assay: Biological activity against bacterial strains: S. pneumoniae; assay type: cell-based, Streptococcus pneumoniae; design: Biological Activity, S. pneumoniae ATCC6301 / Biological Activity, S. pneumoniae ATCC700671 / Biological Activity, S. pneumoniae ATCC700676* / Biological Activity, S. pneumoniae ATCC700677* / Biological Activity, S. pneumoniae ATCC700905* / Biological Activity, S. pneumoniae ATCC700906* / Biological Activity, S. pneumoniae ATCC49619: unit not given here; conditions: for Biological Activity, S. pneumoniae ATCC6301: strain ATCC6301; for Biological Activity, S. pneumoniae ATCC49619: strain ATCC49619; for Biological Activity, S. pneumoniae ATCC700671: strain ATCC700671; for Biological Activity, S. pneumoniae ATCC700676*: strain ATCC700676, macrolide resistant strain; for Biological Activity, S. pneumoniae ATCC700677*: strain ATCC700677, macrolide resistant strain; for Biological Activity, S. pneumoniae ATCC700905*: strain ATCC700905, macrolide resistant strain; for Biological Activity, S. pneumoniae ATCC700906*: strain ATCC700906, macrolide resistant strain
[2] = test system: Haemophilus Influenzae; assay: H. influenzae Activity; assay type: cell-based; conditions: for potency against H. influenzae (in words): compared to compound A, OMT and Ketek
[3] = test system: S. aureus; assay: Biological activity against bacterial strains: S. aureus; assay type: cell-based, Staphylococcus aureus; design: unit not given here
[4] = test system: S. epidermidis; assay: Biological activity against bacterial strains: S. epidermidis; assay type: cell-based, Staphylococcus epidermidis; conditions: strain ATCC12228

SMILES	activity / potency against S. pneumoniae (in words) [1]	Biological Activity, S. pneumoniae ATCC6301 [1]	Biological Activity, S. pneumoniae ATCC49619 [1]	Biological Activity, S. pneumoniae ATCC700671 [1]	Biological Activity, S. pneumoniae ATCC700676* [1]	Biological Activity, S. pneumoniae ATCC700677* [1]	Biological Activity, S. pneumoniae ATCC700905* [1]	Biological Activity, S. pneumoniae ATCC700906* [1]	potency against H. influenzae (in words) [2]	H. influenzae Activity, strain ATCC9006 [2]	H. influenzae Activity, strain ATCC49766 [2]	H. influenzae Activity, strain EH001 [2]	H. influenzae Activity, strain EH002 [2]	H. influenzae Activity, strain EH003 [2]	Biological Activity, S. aureus ATCC6538p ([3]; strain ATCC6538p)	Biological Activity, S. aureus ATCC29213 ([3]; strain ATCC29213)	Biological Activity, S. epidermidis ATCC12228 [4]
CCC1OC(=O)CC(O)C(C)C(OC2OC(C)C(O)C(N(C)C)C2O)C(CC=O)CC(C)C(=NOCCCOc2ccc3ncccc3c2)C=CC(C)=CC1CN(C)C (single isomer, unassigned) [Compound Z]	essentially remained unchanged	0.025	0.049	0.049	0.025	>12.5	0.025	>12.5	improved potency against H. influenzae, to a level similar to OMT and Ketek™	1.56	3.12	3.12	3.12	1.56			
CCC1OC(=O)CC(O)C(C)C(OC2OC(C)C(O)C(N(C)C)C2O)C(CC=O)CC(C)C(=NOCCCOc2ccc3ncccc3c2)C=CC(C)=CC1CN(C)C (single isomer, unassigned) [Compound Y]	essentially remained unchanged	0.025	0.025	0.098	0.025	>12.5	0.025	>12.5	improved potency against H. influenzae, to a level similar to OMT and Ketek™	1.56	3.12	3.12	6.25	3.12			
CC[C@H]1OC(=O)[C@H](C)[C@@H](O[C@H]2C[C@@](C)(OC)[C@@H](O)[C@H](C)O2)[C@H](C)[C@@H](O[C@@H]2O[C@H](C)C[C@H](N(C)C)[C@H]2O)[C@](C)(O)C[C@@H](C)C(=O)[C@H](C)[C@@H](O)[C@]1(C)O [Ery A, erythromycin A, reference compound]		0.025	0.049	0.049	6.25	6.25	3.12			1.56	6.25	3.12	6.25	3.12	0.098	0.20	0.20
CC[C@H]1OC(=O)[C@H](C)C(=O)[C@H](C)[C@@H](O[C@@H]2O[C@H](C)C[C@H](N(C)C)[C@H]2O)[C@](C)(OC)C[C@@H](C)C(=O)[C@H](C)[C@H]2N(CCCCn3cnc(-c4cccnc4)c3)C(=O)O[C@]12C [Ketek, telithromycin, reference compound]										1.56	3.12	1.56	6.25	1.56			
